The results in this text go back to patent US11999727B2 (Tango Therapeutics, Inc., priority 2020, dated 2024).

Experiment [1] concerns the target T1, PRMT5 (Homo sapiens, UniProt O14744).
T1 construct: purchased Viva (custom protein)
Briefly: PRMT5 biochemical IC50 assay with SAM as cofactor. The conditions noted are these: PRMT5, SAM as cofactor; read-out: SAM IC50.

The subject of experiment [2] is HAP1 MTAP-intact cell line. Briefly: SDMA in-cell western assay, HAP1 MTAP-intact. It is filed as cell-based. The conditions noted are these: Homo sapiens, HAP1, SDMA in-cell western, HAP1 MTAP-intact; read-out: MTAP HAP1 intact IC50. In short, it runs like this: (§1)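 Compounds were tested in HAP1 cells differing only in MTAP status (endogenous expression versus null). Cellular SDMA levels were then measured by in-cell western, giving an IC50 in each background.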

Experiment [3] relates to HAP1 MTAP-deleted cell line. Briefly: SDMA in-cell western assay, HAP1 MTAP-deleted. Particulars: for IC50: Homo sapiens, HAP1, SDMA in-cell western, HAP1 MTAP-deleted; for MTAP intact/deleted ratio: SDMA in-cell western. The format is cell-based. In short, it runs like this:
as §1

The subject of experiment [4] is HAP1 MTAP-deleted cell line. Briefly: Viability assay, MTAP-deleted cell line. It is filed as cell-based. The conditions noted are these: Homo sapiens, read-out: HAP1 MTAP deleted viability. The source says:
Table 1 additionally indicates IC50 values in a viability assay for the MTAP-deleted cell line (column 10), indicating the effect of treatment with compound on cell survival.

The target in experiment [5] is T1, PRMT5. Briefly: PRMT5 biochemical IC50 assay with no cofactor. Particulars: PRMT5, no cofactor. The source says: Table 1 indicates IC50 values (μM) against PRMT5 for exemplary compounds in the presence of SAM as cofactor, with no cofactor, and with MTA as cofactor, respectively (columns 4-6). […] Ki values can be calculated from the IC50 values as described in the Examples section. As detailed in the Examples section, for the assay performed in the presence of SAM, IC50=Ki×1.5 (Ki=IC50/1.5).

For experiment [6], the target named is T1, PRMT5. Briefly: PRMT5 biochemical IC50 assay with MTA as cofactor. The conditions noted are these: PRMT5, MTA as cofactor; read-out: MTA IC50.
Where [7] appears, read: read-out: HAP 1 MTAP deleted IC50.
[8] abbreviates: IC50 ratio HAP1 MTAP-intact / HAP1 MTAP-deleted.
Setting [9] is: HAP1, viability IC50, MTAP-deleted cell line.
Setting [10] is: HAP1, viability assay, MTAP-deleted cell line.
[11] abbreviates: read-out: HAP1 MTAP deleted IC50.
[12] abbreviates: IC50 ratio HAP1 MTAP-intact vs HAP1 MTAP-deleted.
Where [13] appears, read: read-out: No Cofactor/ rel IC50.

Each structure is given as a SMILES string.

T1 sequence (O14744 whole entry): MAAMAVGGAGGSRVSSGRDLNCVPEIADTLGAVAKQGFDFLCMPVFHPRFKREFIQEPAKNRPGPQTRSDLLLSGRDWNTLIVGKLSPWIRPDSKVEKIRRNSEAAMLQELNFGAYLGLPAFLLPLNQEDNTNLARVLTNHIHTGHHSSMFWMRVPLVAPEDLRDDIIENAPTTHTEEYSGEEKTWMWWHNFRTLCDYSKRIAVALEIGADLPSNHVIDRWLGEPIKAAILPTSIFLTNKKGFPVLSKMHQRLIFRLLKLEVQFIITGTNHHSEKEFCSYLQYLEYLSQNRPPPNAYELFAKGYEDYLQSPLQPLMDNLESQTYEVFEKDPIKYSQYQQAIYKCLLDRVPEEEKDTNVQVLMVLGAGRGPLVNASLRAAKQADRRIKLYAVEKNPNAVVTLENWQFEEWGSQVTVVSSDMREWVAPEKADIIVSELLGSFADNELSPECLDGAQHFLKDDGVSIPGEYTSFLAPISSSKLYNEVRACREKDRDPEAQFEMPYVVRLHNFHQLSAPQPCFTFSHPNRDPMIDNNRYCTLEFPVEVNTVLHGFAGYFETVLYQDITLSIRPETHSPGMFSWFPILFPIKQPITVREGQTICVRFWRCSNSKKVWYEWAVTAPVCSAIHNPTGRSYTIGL
T1 sequence (Q9BQA1 whole entry partner): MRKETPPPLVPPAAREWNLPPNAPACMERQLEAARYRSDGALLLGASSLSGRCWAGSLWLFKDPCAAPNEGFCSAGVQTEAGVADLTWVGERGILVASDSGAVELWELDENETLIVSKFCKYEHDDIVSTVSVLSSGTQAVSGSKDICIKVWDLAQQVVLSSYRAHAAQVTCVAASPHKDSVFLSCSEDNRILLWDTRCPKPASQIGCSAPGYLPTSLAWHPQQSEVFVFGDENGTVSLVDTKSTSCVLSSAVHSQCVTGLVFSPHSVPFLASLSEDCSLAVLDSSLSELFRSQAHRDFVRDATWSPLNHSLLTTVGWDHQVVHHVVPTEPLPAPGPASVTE

As for `CC(C)c1cc([C@@H]2CC[C@@H](C)CN2C(=O)C(=O)Nc2cncc(C(N)=O)c2)ccc1O` (racemic) [Compound 552, 5-[[2-[(2S,5R)-2-(4-Hydroxy-3-isopropyl-phenyl)-5-methyl-1-piperidyl]-2-oxo-acetyl]amino]pyridine-3-carboxamide], the IC50 was 50 to 500 nM at PRMT5 [1]; > 1000 nM in experiment [2]; < 100 nM in experiment [3] (setting [7]); < 1000 nM in experiment [4] (setting [9]); 50 to 500 nM on PRMT5 [5] (read-out: No Cofactor/rel IC50); < 50 nM at PRMT5 [6]. For the same compound, the MTAP intact/deleted ratio entry in experiment [3] (setting [8]) is “A (an IC50 ratio greater than or equal to 10 fold)”.
`COc1ncc(NC(=O)C(=O)N2C[C@@H](C)CC[C@@H]2c2cc3[nH]ncc3s2)cc1C(N)=O` (single isomer, unassigned) [Compound 1006, 2-methoxy-5-(2-(5-methyl-2-(1H-thieno[3,2-c]pyrazol-5-yl)piperidin-1-yl)-2-oxoacetamido)nicotinamide]: the IC50 on PRMT5 [1] is 50 to 500 nM; in experiment [2], > 1000 nM; in experiment [3] (setting [7]) it was < 100 nM; in experiment [4] (setting [10]), < 1000 nM; on PRMT5 [5] (read-out: No Cofactor/rel IC50), 50 to 500 nM; on PRMT5 [6] it was < 50 nM. The MTAP intact/deleted ratio result in experiment [3] (setting [8]) is reported as “A (an IC50 ratio greater than or equal to 10 fold)”.
As to `CCc1cc(NC(=O)C(=O)N2CC(C)CCC2c2ccc3sc(C4CCN(C)CC4C)nc3c2)cnc1N` (racemic) [Compound 1098, N-(6-amino-5-ethyl-3-pyridyl)-2-oxo-2-[rac-(2R,5S)-5-methyl-2-[2-[rac-(3R,4S)-1,3-dimethyl-4-piperidyl]-1,3-benzothiazol-5-yl]-1-piperidyl]acetamide], the IC50 at PRMT5 [1] is < 50 nM; in experiment [2], < 100 nM; in experiment [3] (setting [11]), < 100 nM; in experiment [4] (setting [10]), < 1000 nM; at PRMT5 [5] (read-out: No Cofactor/rel IC50) it was < 50 nM; at PRMT5 [6] it was < 50 nM. In addition, the MTAP intact/deleted ratio entry in experiment [3] (setting [12]) is on record as “B (an IC50 ratio greater than or equal to 3 fold but lower than 10 fold)”.
As to `CCc1cc(NC(=O)C(=O)N2C[C@@H](C)CC[C@@H]2c2ccc3sc(CCN(C)C)nc3c2)cnc1N` (single isomer, unassigned) [Compound 1196], the IC50 is < 50 nM on PRMT5 [1]; < 100 nM in experiment [2]; < 100 nM in experiment [3] (setting [11]); < 1000 nM in experiment [4] (setting [10]); < 50 nM at PRMT5 [5] (read-out: No Cofactor/rel IC50); < 50 nM on PRMT5 [6]. For the same compound, the MTAP intact/deleted ratio entry in experiment [3] (setting [12]) was “A (an IC50 ratio greater than or equal to 10 fold)”.
In the case of `CCc1cc(NC(=O)C(=O)N2C[C@@H](C)CC[C@@H]2c2ccc3sc(C4CCN(C)C(=O)C4)nc3c2)cnc1N` (mixture of isomers) [Compound 1110, N-(6-amino-5-ethylpyridin-3-yl)-2-((2R,5S)-5-methyl-2-(2-(1-methyl-2-oxopiperidin-4-yl)benzo[d]thiazol-5-yl)piperidin-1-yl)-2-oxoacetamide], the IC50 on PRMT5 [1] is 50 to 500 nM; in experiment [2] it was 100 to 1000 nM; in experiment [3] (setting [11]), < 100 nM; in experiment [4] (setting [10]), < 1000 nM; on PRMT5 [5] (read-out: No Cofactor/rel IC50), < 50 nM; on PRMT5 [6], < 50 nM. Further, in experiment [3] (setting [12]), the MTAP intact/deleted ratio entry is “A (an IC50 ratio greater than or equal to 10 fold)”.
For the compound `C[C@H]1CC[C@H](c2cccs2)N(C(=O)C(=O)Nc2cncc(C(N)=O)c2)C1` (single isomer, unassigned) [Compound 198], the IC50 on PRMT5 [1] was 50 to 500 nM; in experiment [2], 100 to 1000 nM; in experiment [3] (setting [11]), < 100 nM; in experiment [4] (setting [10]), < 1000 nM; at PRMT5 [5] (read-out: No Cofactor/rel IC50), < 50 nM; at PRMT5 [6] it was < 50 nM. The MTAP intact/deleted ratio entry in experiment [3] (setting [8]) is “A (an IC50 ratio greater than or equal to 10 fold)”.
With `Cn1nccc1C1CCCCN1C(=O)C(=O)Nc1cncc(C(N)=O)c1` (stereo not shown) [Compound 26, 5-[[2-[2-(2-methylpyrazol-3-yl)-1-piperidyl]-2-oxo-acetyl]amino]pyridine-3-carboxamide], the IC50 at PRMT5 [1] is 50 to 500 nM; in experiment [2], > 1000 nM; in experiment [3] (setting [7]) it was 100 to 1000 nM; in experiment [4] (setting [10]) it was > 10000 nM; at PRMT5 [5] (setting [13]), > 500 nM; on PRMT5 [6] it was 50 to 500 nM. Further, the “MTAP intact/deleted ratio” value in experiment [3] (setting [8]) is recorded as “A (an IC50 ratio greater than or equal to 10 fold)”.
Consider `C[C@@H]1CCC[C@@H]2CN(C(=O)C(=O)Nc3cncc(C(N)=O)c3)CC[C@@H]21` (racemic) [Compound 536, 5-(2-(5-methyloctahydroisoquinolin-2(1H)-yl)-2-oxoacetamido)nicotinamide], for which the IC50 is 50 to 500 nM at PRMT5 [1]; > 1000 nM in experiment [2]; 100 to 1000 nM in experiment [3] (setting [7]); > 10000 nM in experiment [4] (setting [9]); > 500 nM at PRMT5 [5] (read-out: No Cofactor/rel IC50); 50 to 500 nM on PRMT5 [6]. The MTAP intact/deleted ratio result in experiment [3] (setting [8]) is “A (an IC50 ratio greater than or equal to 10 fold)”.
Turning to `CC(C)C1CCCCN1C(=O)C(=O)Nc1cncc(C(N)=O)c1` (stereo not shown) [Compound 100, 5-[[2-(2-isopropyl-1-piperidyl)-2-oxo-acetyl]amino]pyridine-3-carboxamide], the IC50 on PRMT5 [1] is 50 to 500 nM; in experiment [2], > 1000 nM; in experiment [3] (setting [7]), 100 to 1000 nM; in experiment [4] (setting [10]), > 10000 nM; on PRMT5 [5] (setting [13]), > 500 nM; on PRMT5 [6] it was 50 to 500 nM. In experiment [3] (setting [8]), the “MTAP intact/deleted ratio” value is on record as “A (an IC50 ratio greater than or equal to 10 fold)”.
As for `COc1ncc(NC(=O)C(=O)N2C[C@@H](C)CC[C@@H]2c2ccc3sc(C4CC5(C4)CN(C)C5)nc3c2)cc1C(N)=O` [Compound 1236, 2-methoxy-5-(2-((2R,5S)-5-methyl-2-(2-(2-methyl-2-azaspiro[3.3]heptan-6-yl)benzo[d]thiazol-5-yl)piperidin-1-yl)-2-oxoacetamido)nicotinamide], the IC50 at PRMT5 [1] was < 50 nM; in experiment [2], < 100 nM; in experiment [3] (setting [11]), < 100 nM; in experiment [4] (setting [10]) it was < 1000 nM; at PRMT5 [5] (read-out: No Cofactor/rel IC50), < 50 nM; on PRMT5 [6] it was < 50 nM. In addition, the MTAP intact/deleted ratio entry in experiment [3] (setting [12]) was “A (an IC50 ratio greater than or equal to 10 fold)”.
Regarding `C[C@H]1CC[C@H](c2ccc(O)nc2)N(C(=O)C(=O)Nc2cncc(C(N)=O)c2)C1` (single isomer, unassigned) [Compound 350], the IC50 was 50 to 500 nM on PRMT5 [1]; > 1000 nM in experiment [2]; > 1000 nM in experiment [3] (setting [11]); > 10000 nM in experiment [4] (setting [10]); 50 to 500 nM at PRMT5 [5] (read-out: No Cofactor/rel IC50); < 50 nM on PRMT5 [6]. In addition, the MTAP intact/deleted ratio result in experiment [3] (setting [8]) is “C (an IC50 ratio of less than 3 fold)”.
Regarding `Cc1cncc(NC(=O)C(=O)N2C[C@H](C)CCC2c2cccc(F)c2)c1` (single isomer, unassigned) [Compound 93], the IC50 at PRMT5 [1] is 50 to 500 nM; in experiment [2], > 1000 nM; in experiment [3] (setting [7]) it was > 1000 nM; in experiment [4] (setting [10]), > 10000 nM; on PRMT5 [5] (setting [13]), > 500 nM; at PRMT5 [6], 50 to 500 nM. The “MTAP intact/deleted ratio” value in experiment [3] (setting [8]) is “C (an IC50 ratio of less than 3 fold)”.
With `Cc1cncc(NC(=O)C(=O)N2C[C@@H](C)CC[C@@H]2c2cccc(Cl)c2)c1` (single isomer, unassigned) [Compound 87], the IC50 was 50 to 500 nM on PRMT5 [1]; > 1000 nM in experiment [2]; > 1000 nM in experiment [3] (setting [7]); > 10000 nM in experiment [4] (setting [10]); 50 to 500 nM at PRMT5 [5] (setting [13]); 50 to 500 nM on PRMT5 [6]. Moreover, the “MTAP intact/deleted ratio” value in experiment [3] (setting [8]) is recorded as “C (an IC50 ratio of less than 3 fold)”.
